{"source": "patent US20220372014A1", "about": "“NEUROPROTECTIVE COMPOUNDS AND METHODS OF USE THEREOF” (The Johns Hopkins University, priority 2019, published 2022)", "key": {"PAAN/MIF": {"tested_on": "PAAN/MIF", "test": "In vitro PAAN/MIF nuclease assay (PS30 or RF substrate, PAGE gel, noncleaved substrate DNA)", "type": "biochemical, human", "protocol": "Nuclease assay. Purified PAAN/MIF protein (4 μM) was incubated with compounds (10 μM) in the nuclease buffer [10 mM Tris-C1 (pH 7.0) and 10 mM MgCl2] for 20 m on ice. Then samples were added with 1 μM of PAAN/MIF substrate (PS30 or RF) and incubated for 1 h at 37° C. The reaction was terminated with loading buffer containing 10 mM EDTA and separated on 15% TBE-urea polyacrylamide (PAGE) gel or 20% TBE PAGE gel.\n(§1) Purification of PAAN/MIF recombinant proteins. Human PAAN/MIF (NM_002415) cDNA and its variants were subcloned into pGEX-6β-1 vector (GE Healthcare) and mutants were generated using a QuikChange site-directed mutagenesis kit (Stratagene). The sequences were confirmed by automated DNA sequencing. The protein was expressed and purified from Escherichia coli by glutathione sepharose (GE Healthcare). The GST tag was subsequently proteolytically removed. GST protein was used as a negative control in the nuclease assay and PAAN/MIF proteins purified by FPLC using Superdex 200 10/300GL column (GE Healthcare, Life Sciences) were also used in the nuclease assays."}, "PAAN/MIF WT or variants": {"tested_on": "PAAN/MIF WT or variants", "test": "Biolayer interferometry (ForteBio Octet) binding assay", "set-up": "species or system human", "description": "as §1\nBiolayer interferometry assay. The dose-dependent binding of compound 121 for PAAN/MIF WT or PAAN/MIF variants were determined by a biolayer interferometry assay using Octet RED96 (ForteBio). See Guo et al. (2018) Nat. Chem. 11:254-63. All the proteins used in this assay were tagged with GST. Anti-GST biosensor tips (ForteBio) were used to immobilize the GST proteins after prewetting with 1X kinetic buffer (ForteBio). The equilibrated GST biosensors were loaded with PAAN/MIF WT or variants (25 μg/ml). Background binding controls were measured by sensors that were incubated in buffer without proteins. All assays were performed by a standard protocol in 96-well black plates (Greiner Bio) with a total volume of 200 μl per well. All the data were analyzed by Octet data analysis software."}, "calcineurin": {"tested_on": "calcineurin", "test": "Calcineurin cellular activity assay in SH-SY5Y cells", "type": "cell-based", "settings": "1 μM, 6 h", "protocol": "Calcineurin activity assay. Calcineurin activity was measured using a calcineurin cellular activity assay (Enzo Life Sciences) according to manufacturer's protocols. See Sangadala et al. (2019) Int. J. Mol. Sci. 20:1900. SH-SY5Y cells treated with FK506 or compound 121 were placed in a desalting column to remove excess phosphates and nucleotides. Total phosphate activity was determined in the samples by incubating with a calcineurin-specific substrate supplied in the manufacturer and measured by monitoring absorbance at 620 nm. Calcineurin activity was calculated as the difference between total phosphatase activity minus the phosphatase activity in the presence of 10 mM EGTA that blocks calcineurin activity."}, "[1]": {"tested_on": "α-syn PFF injected WT mice", "test": "Intrastriatal α-syn PFF mouse model (TH/Nissl stereology, HPLC of dopamine and DOPAC, pole test, grip strength test, pulsed-field gel, weight)"}, "[2]": {"settings": "both doses, 5 and 15 mg/kg/day oral, 5 months"}}}
{"smiles": "COc1ccc(CC[C@H]2OC(=O)[C@@H]3CCCCN3C(=O)C(=O)C(C)(C)COC(=O)C=CCCN(C)C(=O)[C@@H]3CCCN3C(=O)[C@H](COC(C)(C)C)N(C)C(=O)C(c3ccccc3)NC(=O)[C@H](C)N(C)C(=O)COc3cc(F)cc2c3)cc1OC", "note": "(mixture of isomers) [compound 121]", "values": [{"measurement": "nuclease activity of MIF 66-67A or MIF 97-99A mutants", "setting": "PAAN/MIF; mutants K66A and I67A, N97A, Y98A and Y99A", "result": "remained sensitive to inhibition"}, {"measurement": "nuclease activity of PAAN/MIF 60-63A and PAAN/MIF N72A mutants", "setting": "PAAN/MIF; mutants S60A, L61A, H62A and S63A (MIF 60-63A), N72A", "result": "became resistant"}, {"measurement": "direct binding of PAAN/MIF WT and Y99A mutant", "setting": "PAAN/MIF WT or variants", "result": "exhibited binding"}, {"measurement": "direct binding of mutants L61A, N72A and 60-63A", "setting": "PAAN/MIF WT or variants", "result": "remarkably decreased"}, {"measurement": "FK506 sensitive calcineurin activity", "setting": "calcineurin", "result": "failed to inhibit"}, {"measurement": "tolerability (toxicity, weight)", "setting": "[1]; 5 and 15 mg/kg/day oral, 5 months", "result": "no overt toxicity or weight loss"}, {"measurement": "behavioral deficits (pole test, grip strength test)", "setting": "[1]; [2]", "result": "prevents"}, {"measurement": "loss of DA neurons (TH and Nissl stereology, TH immunoblot, HPLC of DA and DOPAC)", "setting": "[1]; [2]", "result": "prevents the loss of DA neurons"}, {"measurement": "α-syn PFF-induced large scale genomic DNA cleavage in vivo", "setting": "[1]; pulse gel electrophoresis", "result": "significantly attenuated"}]}
